The values below come from patent publication US20020019533A1, “PIPERIDINE DERIVATIVES AND ANTI-PLATELET AGENTS CONTAINING THE SAME” (priority 1994, published 2002).

Assay [1] relates to head twitch of mouse induced by 5-hydroxytryptophan (5HTP). The assay is described as follows: Inhibiting effect on head twitch of mouse induced by 5-hydroxytryptophan (5HTP). In kind it is in vivo, ICR mouse. The note with it: oral, 90 minutes before 5HTP (180 mg/kg i.p.); 50% inhibition of the number of head twitches. The procedure: The serotonin antagonistic activity in the central nerve system was evaluated by measuring the inhibiting effect on head twitch of mouse induced by 5-hydroxytryptophan (5HTP) A test compound in an amount of 1, 3, 10, or 30 mg was respectively dissolved in 100 ml of water and, 90 minutes before 5HTP administration, the solution (10 ml/kg body weight) was orally administered to a ICR mouse (body weight: 27 to 32 g, male) fasted from the previous day. As a control, 5% arabic gum was used. Carbidopa (6 mg/kg) was subcutaneously administered and, after 15 minutes, 5HTP (180 mg/kg) was intraperitoneally administered. From the 15 minutes after 5HTP administration, the number of head twitches occurred within 2 minutes were counted. The concentration of the test compound which inhibits 50% of the number of head twitches in the 5% arabic gum administered group was obtained.

Assay [2] has as its system platelet aggregation by serotonin. The assay is described as follows: In vivo anti-platelet effect after oral administration: ADP + serotonin induced aggregation of PRP taken 2 hours after dosing. The note with it: 2 hours after administration, arabic gum group = 100%, n=3. More on the design: species or system SD rats. The procedure: The anti-platelet effect due to the serotonin antagonistic activity was measured in vivo using SD rats (body weight: about 210 to 330 g, male). Two hours after the administration of the test compound, the rat was anesthetized with diethyl ether and platelet rich plasma (PRP) and platelet poor plasma (PPP) were prepared from blood with 0.38% sodium citrate which was obtained from aorta abdominalis of the rat. The platelet concentration of PRP was adjusted to 5×10^8 platelets/ml by adding PPP. Then, the PRP was incubated at 37° C. for 3 minutes, and platelet aggregation induced by addition of 0.7 μM adenosine diphosphate (ADP)+ serotonin was measured as an increase in optical transmittance of PRP. The aggregation occurred by addition of ADP alone and the maximum aggregation ratio by the simultaneous addition of ADP and serotonin were measured with respect to each group, and increase in aggregation caused by serotonin was calculated. The increase in aggregation caused by serotonin in the arabic gum administered group was taken as 100%, and the effect of the test compound was judged using as an index the increase in aggregation caused by the serotonin in the test compound-administered group (n=3).

In a further assay the target is T1, serotonin 2 receptor (Bos taurus, UniProt Q75Z89).
T1 construct: evaluated using a bovine cerebral cortex membrane sample; from tissue; host or cells: bovine cerebral cortex membranes
Kind of assay: Binding affinity to the serotonin 2 receptor, [3H]-ketanserin, bovine cerebral cortex membrane. The note with it: negative logarithm of Ki, 3 nM [3H]-ketanserin, 25° C., 30 minutes. The procedure:
The binding affinity to the serotonin 2 receptor was evaluated using a bovine cerebral cortex membrane sample. To 200 μl of a bovine membrane sample adjusted to 50 mg (wet weight) membrane/ml were added 200 μl of 3 nM [^3H]-ketanserin and 200 μl of a test compound solution prepared by dissolving a test compound in 1.7% ethanol, followed by mixing. The mixture was incubated at 25° C. for 30 minutes and filtered with a glass filter. The radioactivity trapped on the filter was measured with a liquid scintillation counter. The non-specific binding was defined by 10^−6 M LY53857. The concentration of the test compound which inhibits 50% of the specific binding of [^3H]-ketanserin (i.e., IC50 value) was obtained, and the Ki value was calculated in accordance with the following equation. The results are shown as the negative logarithm of the Ki value (i.e., pKi value). [formula]
In the equation, Ki indicates the dissociation constant and [L] indicates the concentration of [^3H]-ketanserin.

The test system of a further assay is platelet of SD rats. The assay is described as follows: In vitro anti-platelet effect: platelet aggregation induced by ADP + serotonin in rat platelet rich plasma. In kind it is cell-based. The following applies: rat PRP, 0.5 μM or 0.8 μM ADP + serotonin, 50% inhibition of the serotonin-caused increase in aggregation. As for the experimental part:
The anti-platelet effect due to the serotonin antagonistic activity was measured in vitro using the platelet of SD rats (body weight: about 300 to 400 g, male). Platelet rich plasma (PRP) and platelet poor plasma (PPP) were prepared from blood with 0.38% sodium citrate which was obtained from aorta abdominalis of a rat under diethyl ether anesthesia. The platelet concentration of PRP was adjusted to 5×10^8 platelets/ml by adding PPP. Then, the test compound dissolved in 0.4% aqueous ethanol was added, and the mixture was incubated at 37° C. for 3 minutes. The platelet aggregation induced by addition of 0.5 μM or 0.8 μM adenosine diphosphate (ADP)+ serotonin was measured as an increase in optical transmittance of PRP. The concentration of the test compound which inhibits 50% of the increase in platelet aggregation which is obtained with serotonin without a test compound was measured, and its negative logarithm (pIC50) was calculated.

Molecules are shown by their SMILES.

T1 sequence (Q75Z89 whole entry): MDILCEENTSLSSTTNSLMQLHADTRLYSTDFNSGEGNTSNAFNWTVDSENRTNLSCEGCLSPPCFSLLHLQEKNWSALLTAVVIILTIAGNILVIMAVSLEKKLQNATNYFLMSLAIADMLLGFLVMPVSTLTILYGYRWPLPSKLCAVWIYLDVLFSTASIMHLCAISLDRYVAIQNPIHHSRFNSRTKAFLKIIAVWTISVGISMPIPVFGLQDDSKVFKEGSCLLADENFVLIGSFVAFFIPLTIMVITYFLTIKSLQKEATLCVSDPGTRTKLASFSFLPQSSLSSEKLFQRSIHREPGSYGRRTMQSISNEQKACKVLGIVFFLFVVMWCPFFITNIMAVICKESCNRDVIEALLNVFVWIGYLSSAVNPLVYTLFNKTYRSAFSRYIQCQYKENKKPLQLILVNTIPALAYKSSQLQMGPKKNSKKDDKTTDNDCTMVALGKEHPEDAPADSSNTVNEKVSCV

One may read the Ki as the equilibrium dissociation constant of an inhibitor or competing ligand from its target. A lower Ki goes with higher affinity. The term IC50 denotes the concentration that inhibits the measured activity by half. The molecule `O=CN1CCC(C(=O)NCCN2CCC(=C3c4ccccc4C=Cc4ccccc43)CC2)CC1` [Compound 3] came in with an ID50 in assay [1] of 0.39 mg/kg. Besides, the “Increase in aggregation by serotonin” value was 75.7% in assay [2] (0.1 mg/kg oral); 57.3% in assay [2] (0.3 mg/kg oral); 24.3% in assay [2] (1 mg/kg oral); 27% in assay [2] (3 mg/kg oral); −2.7% in assay [2] (10 mg/kg oral). This molecule gave a Ki on serotonin 2 receptor of 3.98 nM. Moreover, the half-maximal inhibitory concentration (IC50) in the assay on platelet of SD rats (Platelet) is 63.1 nM.
One may read the pKi as the negative decadic logarithm of the Ki, by convention in mol/L. Low readings indicate a high Ki, high ones a low Ki. As a reminder, the pIC50 is −log10 of the IC50, conventionally taken in molar units. For `O=CNCCCC(=O)NCCN1CCC(=C2c3ccccc3C=Cc3ccccc32)CC1` [Compound 24], the pKi on serotonin 2 receptor is reported as 9.8. In addition, the negative-log IC50 (pIC50) in the assay with platelet of SD rats is given as 7.2.
Turning to `CC(C)(C)OC(=O)NCCN1CCC(=C2c3ccccc3C=Cc3ccccc32)CC1` [Compound 17], in assay [2] (0.3 mg/kg oral), the “Increase in aggregation by serotonin” value is 50.7%. The pIC50 with platelet of SD rats was 7.0.
`CC(C)(C)OC(=O)NC1(C(=O)NCCN2CCC(=C3c4ccccc4C=Cc4ccccc43)CC2)CCCCC1` [Compound 20] returned a negative-log Ki (pKi) at serotonin 2 receptor of 8.0. Also, the pIC50 in the assay on platelet of SD rats is reported as 6.3.
For `CC(=O)NCCCC(=O)NCCN1CCC(=C2c3ccccc3C=Cc3ccccc32)CC1` [Compound 25], on serotonin 2 receptor, the negative-log Ki (pKi) was 9.2. The pIC50 in the assay with platelet of SD rats came to 6.6.
Consider `CN1CCC(=C2c3ccccc3C=Cc3ccccc32)CC1` [cycloheptadine, reference compound], for which, in assay [1], the ID50 is listed as 0.12 mg/kg.
On to `C1=Cc2ccccc2C(=C2CCN(CCCCN3CCOCC3)CC2)c2ccccc21` [Compound 41], for which, in assay [2] (0.3 mg/kg oral), the “Increase in aggregation by serotonin” value is reported as 91.5%. On serotonin 2 receptor, this molecule displayed a negative-log Ki (pKi) of 8.2. In the assay on platelet of SD rats, the pIC50 is given as 6.9.
For `CN(CCCC(=O)NCCN1CCC(=C2c3ccccc3C=Cc3ccccc32)CC1)C(=O)OC(C)(C)C` [Compound 29], the pIC50 with platelet of SD rats is 7.1.
On serotonin 2 receptor, `CC(=O)NC1(C(=O)NCCN2CCC(=C3c4ccccc4C=Cc4ccccc43)CC2)CCCCC1` [Compound 19] came in with a negative-log Ki (pKi) of 8.3. For the same molecule, in the assay on platelet of SD rats, the pIC50 is recorded as 6.4.
In the case of `O=C(NCCN1CCC(=C2c3ccccc3C=Cc3ccccc32)CC1)C1CCCCN1` (centres unmarked) [Compound 9], in assay [2] (0.3 mg/kg oral), the “Increase in aggregation by serotonin” value came to 57.3%. For the same molecule, the negative logarithm of the Ki (pKi) at serotonin 2 receptor is listed as 7.8. For the same molecule, the pIC50 in the assay with platelet of SD rats amounted to 7.1.
Take `NCCCC(=O)NCCN1CCC(=C2c3ccccc3C=Cc3ccccc32)CC1` [Compound 23]: the pIC50 in the assay on platelet of SD rats is reported as 7.6.
The same measure, in the same setting: in the case of `CCOC(=O)NCCN1CCC(=C2c3ccccc3C=Cc3ccccc32)CC1` [Compound 16] it was 7.6.
Turning to `CN(C)C(=O)NC1(C(=O)NCCN2CCC(=C3c4ccccc4C=Cc4ccccc43)CC2)CCCCC1` [Compound 22], at serotonin 2 receptor, the negative-log Ki (pKi) is on record as 8.2. Further, in the assay with platelet of SD rats, the negative logarithm of the IC50 (pIC50) was determined as 5.8.
In the same order, the values of `O=CN1CCN(C(=O)NCCN2CCC(=C3c4ccccc4C=Cc4ccccc43)CC2)CC1` [Compound 11] are 8.8 and 7.0.
As to `CC(C)(C)OC(=O)NCCCN1CCC(=C2c3ccccc3C=Cc3ccccc32)CC1` [Compound 31], the negative-log Ki (pKi) at serotonin 2 receptor was determined as 8.8.
In turn, `CN(C)C(=O)NCCCC(=O)NCCN1CCC(=C2c3ccccc3C=Cc3ccccc32)CC1` [Compound 27] returned a pKi on serotonin 2 receptor of 9.2. The pIC50 with platelet of SD rats was found to be 6.9.
The corresponding values for `NC1CCC(C(=O)NCCN2CCC(=C3c4ccccc4C=Cc4ccccc43)CC2)CC1` (centres unmarked) [Compound 12] are 8.6 and 6.6.
`CC(=O)NCC(=O)N1CCC(C(=O)NCCN2CCC(=C3c4ccccc4C=Cc4ccccc43)CC2)CC1` [Compound 8] yielded a negative logarithm of the Ki (pKi) at serotonin 2 receptor of 7.9. For the same molecule, the pIC50 in the assay with platelet of SD rats is recorded as 6.6.
Regarding `CC(C)(C)OC(=O)NCCCC(=O)NCCN1CCC(=C2c3ccccc3C=Cc3ccccc32)CC1` [Compound 26], in the assay on platelet of SD rats, the pIC50 is on record as 7.2.
In the case of `O=CNC1(C(=O)NCCN2CCC(=C3c4ccccc4C=Cc4ccccc43)CC2)CCCCC1` [Compound 21], the negative logarithm of the Ki (pKi) at serotonin 2 receptor is 7.8. Further, the pIC50 in the assay with platelet of SD rats worked out at 6.5.
With `CNCCCC(=O)NCCN1CCC(=C2c3ccccc3C=Cc3ccccc32)CC1` [Compound 28], in the assay with platelet of SD rats, the negative logarithm of the IC50 (pIC50) is 6.6.
For `O=C(NCCN1CCC(=C2c3ccccc3C=Cc3ccccc32)CC1)C1CCNCC1` [Compound 2], at serotonin 2 receptor, the negative-log Ki (pKi) is 8.6. For the same molecule, in the assay with platelet of SD rats, the pIC50 is 7.3.
For the molecule `O=CN1CCC(C(=O)NCCN2CCC(=C3c4ccccc4C=Cc4ccccc43)CC2)CC1` [Compound 6], in the assay on platelet of SD rats, the pIC50 is reported as 6.9.
For `CC(C)(C)OC(=O)N1CCC(C(=O)NCCN2CCC(=C3c4ccccc4C=Cc4ccccc43)CC2)CC1` [Compound 5], the negative-log Ki (pKi) at serotonin 2 receptor stood at 8.0. Also, the pIC50 in the assay on platelet of SD rats turned out to be 6.5.
The corresponding values for `C1=Cc2ccccc2C(=C2CCN(CCCCN3CCSCC3)CC2)c2ccccc21` [Compound 42] are 8.7 and 6.6.
Turning to `NC1(C(=O)NCCN2CCC(=C3c4ccccc4C=Cc4ccccc43)CC2)CCCCC1` [Compound 18], in assay [2] (0.3 mg/kg oral), the “Increase in aggregation by serotonin” value was 94.9%. Also, the pKi at serotonin 2 receptor is listed as 8.9. The pIC50 in the assay with platelet of SD rats is listed as 7.3.
